This test addresses T1, human calcitonin-2 receptor (hCT2R) (Homo sapiens, UniProt P30988).
T1 construct: expressed in transfected cells; host or cells: Chinese hamster ovary (CHO) cells co-transfected with a 6CRE-luciferase reporter; receptor cDNA cloned from the MCF7 cell line
T1 sequence (P30988 25-474): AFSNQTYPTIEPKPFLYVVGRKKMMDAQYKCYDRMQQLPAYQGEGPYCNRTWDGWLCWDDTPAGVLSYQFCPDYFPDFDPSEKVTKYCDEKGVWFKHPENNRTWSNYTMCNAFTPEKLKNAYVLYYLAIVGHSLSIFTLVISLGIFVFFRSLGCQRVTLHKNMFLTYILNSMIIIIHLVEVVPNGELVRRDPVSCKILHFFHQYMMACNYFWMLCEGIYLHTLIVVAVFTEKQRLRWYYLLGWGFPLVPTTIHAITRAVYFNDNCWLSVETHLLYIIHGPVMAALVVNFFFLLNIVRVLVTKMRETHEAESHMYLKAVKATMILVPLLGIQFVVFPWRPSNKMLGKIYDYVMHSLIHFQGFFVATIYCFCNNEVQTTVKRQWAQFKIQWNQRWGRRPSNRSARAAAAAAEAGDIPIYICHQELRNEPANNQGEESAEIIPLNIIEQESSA
As to the kind of experiment: HCT2R CRE-luc reporter assay. The test is classed as cell-based. As to conditions: agonist activity; CHO-6CRE-luciferase cells co-transfected with hCT2R. Here is the method:
The compounds of the present invention elicit important and measurable pharmacological responses. As is to be expected, the efficacy of any compound will vary depending upon the particular assay and the particular compound tested.
All recombinant cell line human calcitonin receptor assays were carried out with the human receptor corresponding to GeneBank Accession Number X69920, [See: Molecular Pharmacology 46 (2):246–255, 1994, Cloning and characterization of an abundant subtype of the human calcitonin receptor] cloned from the MCF7 cell line (American Type Tissue Collection, Manassas, Va., USA, Catalog # HTB-22). Human calcitonin receptor (hCT2R) was cloned as a HindIII fragment into plasmid BS SKII. Chinese hamster ovary cells were co-transfected with a 6CRE-luciferase reporter system and hCTR2. HEK cells were transfected with hCTR2.
CHO-6CRE-luciferase cells with or without co-expressed hCTR2 were grown in suspension in commercially available cell culture medium supplemented with 2 mM L-glutamine and 5% fetal bovine serum (FBS). Sixteen hours before each assay, cells were collected and resuspended at 1,000,000 cells/ml in media without FBS. Cells were cultured in spinner flasks at 37° C. in an atmosphere of 5% CO2. At the time of the assay, cells were pelleted by centrifugation and resuspended in media without FBS at a concentration of 250,000 cells/ml. The cell suspension was pipetted into black 96-well microtiter plates (25,000 cells/well) containing test compounds. After a four-hour incubation at 37° C., media was aspirated, followed by addition of 50 microliters of LucLite and PBS (1:1) containing 1 mM CaCl2 and 1 mM MgCl2. The plates were sealed and incubated for 20 minutes in the dark. Luminescent responses were measured using a Packard TopCount.
Structure activity studies were performed on CHO-6CRE-luciferase cells with or without co-transfected hCT2R. Forty-eight hours before each assay, cells were removed with trypsin and plated in 96-well microtiter plates at a concentration of 25–100,000 cells/well. Sixteen hours before each assay, FBS-containing media was removed and replaced with media without FBS. Compounds were added and incubated for four hours at 37° C. After incubation, media was aspirated and 50 microliters of LucLite in PBS (1:1) containing 1 mM CaCl2 and 1 mM MgCl2 were added to each well. Plates were sealed and incubated for 20 minutes in the dark before quantification of luminescence on a Packard TopCount.
Concentration-response curves were calculated and potencies were reported as the concentration of compounds producing half-maximal responses (EC50) or the negative log of the concentration of compounds producing half-maximal responses (pEC50).
A general note: In a reporter assay the amount or activity of a reporter protein is the signal.

For orientation: EC50 means the concentration that produces a half-maximal response.

Structures are written as SMILES.

Consider `O=C(NCc1ccco1)c1ccc(-c2c(NC(=O)C(F)(F)F)c(CCc3ccc(C(F)(F)F)cc3)nc3c2C(=O)N2CCC[C@@H]32)cc1` [Example 27, 4-((9aS)-3-[(Trifluoromethylcarbonyl)amino]-5-oxo-2-{2-[4-(trifluoromethyl)phenyl]ethyl}-7,8,9,9a-tetrahydro-5H-pyrido[2,3-α]pyrrolizin-4-yl)-N-(2-furylmethyl)benzamide], for which the EC50 lay in the range of 0.1 to 1 µM.

Turning to `N#Cc1c(CCc2ccc(C(F)(F)F)cc2)nc2c(c1-c1ccc(C(=O)NCc3ccco3)cc1)C(=O)N1CCC[C@@H]21` [Example 28, 4-((9aS)-3-Cyano-5-oxo-2-{2-[4-(trifluoromethyl)phenyl]ethyl}-7,8,9,9a-tetrahydro-5H-pyrido[2,3-α]pyrrolizin-4-yl)-N-(2-furylmethyl)benzamide], the EC50 lay in the range of 0.1 to 1 µM.

For `CC(=O)c1c(CCc2ccc(F)cc2)nc2c(c1-c1ccc(C(=O)NCc3ccco3)cc1)C(=O)N1CCC[C@@H]21` [Example 29, 4-{(9aS)-3-acetyl-2-[2-(4-fluorophenyl)ethyl]-5-oxo-7,8,9,9a-tetrahydro-5H-pyrido[2,3-α]pyrrolizin-4-yl}-N-(2-furylmethyl)benzamide], the EC50 was 0.01 to 0.1 µM.

Consider `Cc1nc2c(c(-c3ccc(C(=O)NCc4ccco4)cc3)c1C(=O)CCc1ccc(F)cc1)C(=O)N1CCC[C@@H]21` [Example 30, 4-{(9aS)-3-[3-(4-fluorophenyl)propanoyl]-2-methyl-5-oxo-7,8,9,9a-tetrahydro-5H-pyrido[2,3-α]pyrrolizin-4-yl}-N-(2-furylmethyl)benzamide], for which the 50% effective concentration (EC50) lay within 0.1 to 1 µM.

As to `O=C(NCc1ccco1)c1ccc(-c2c(C(=O)c3ccco3)c(CCc3ccc(F)cc3)nc3c2C(=O)N2CCC[C@@H]32)cc1` [Example 31, 4-[(9aS)-2-[2-(4-fluorophenyl)ethyl]-3-(2-furoyl)-5-oxo-7,8,9,9a-tetrahydro-5H-pyrido[2,3-α]pyrrolizin-4-yl]-N-(2-furylmethyl)benzamide], the EC50 was no more than 0.01 µM.

On to `O=C(N[C@@H]1CCc2ccccc21)c1ccc(-c2c3c(nc4c2C(=O)N2CCC[C@@H]42)CC(c2ccc(F)cc2)CC3=O)cc1` (stereo partly drawn) [Example 32, 4-[(3aS)-6-(4-Fluorophenyl)-8,10-dioxo-2,3,3a,5,6,7,8,10-octahydro-1H-pyrrolizino[1,2-b]quinolin-9-yl]-N-[(1R)-2,3-dihydro-1H-inden-1-yl]benzamide], for which the EC50 is no less than 1 µM.

As to `CCOC(=O)c1c(CCc2ccc(C(F)(F)F)cc2)nc2c(c1-c1ccc(C(=O)NCc3ccco3)cc1)C(=O)N1CSC[C@@H]21` [Example 34, Ethyl (9aR)-4-(4-{[(2-furylmethyl)amino]carbonyl}phenyl)-5-oxo-2-{2-[4-(trifluoromethyl)phenyl]ethyl}-9,9a-dihydro-5H-[1,3]thiazolo[3′,4′:1,2]pyrrolo[3,4-b]pyridine-3-carboxylate], the EC50 is no more than 0.01 µM.

Turning to `CCOC(=O)c1c(CCc2ccc(C(F)(F)F)cc2)nc2c(c1-c1ccc(C(=O)NCc3ccco3)cc1)C(=O)N1CS(=O)(=O)C[C@@H]21` [Example 35, Ethyl (9aR)-4-(4-{[(2-furylmethyl)amino]carbonyl}phenyl)-5-oxo-2-{2-[4-(trifluoromethyl)phenyl]ethyl}-9,9a-dihydro-5H-[1,3]thiazolo[3′,4′:1,2]pyrrolo[3,4-b]pyridine-3-carboxylate 8,8-dioxide], the 50% effective concentration (EC50) lay within 0.01 to 0.1 µM.

On to `CCOC(=O)c1c(CCc2ccc(C(F)(F)F)cc2)nc2c(c1-c1ccc(CC(=O)NCc3ccco3)cc1)C(=O)N1CCC[C@@H]21` [Example 37, Ethyl (9aS)-4-(4-{2-[(2-furylmethyl)amino]-2-oxoethyl}phenyl)-5-oxo-2-{2-[4-(trifluoromethyl)phenyl]ethyl}-7,8,9,9a-tetrahydro-5H-pyrido[2,3-α]pyrrolizine-3-carboxylate], for which the EC50 lay within 0.1 to 1 µM.

Take `CCOC(=O)c1c(Cc2ccc(F)cc2)nc2c(c1-c1ccc(C(=O)NCc3ccco3)nn1)C(=O)N1CCCC21` (stereo not drawn) [Example 39, Ethyl 2-(4-fluorobenzyl)-4-(6-{[(2-furylmethyl)amino]carbonyl}-3-pyridazinyl)-5-oxo-7,8,9,9a-tetrahydro-5H-pyrido[2,3-α]pyrrolizine-3-carboxylate]: the EC50 was 0.01 to 0.1 µM.

For the molecule `CCOC(=O)c1c(CCc2ccc(F)cc2)nc2c(c1-c1ccc(C)cc1)C(=O)N1CCC[C@@H]21` [Example 40, Ethyl (9aS)-2-[2-(4-fluorophenyl)ethyl]-4-(4-methylphenyl)-5-oxo-7,8,9,9a-tetrahydro-5H-pyrido[2,3-α]pyrrolizine-3-carboxylate], the EC50 lay in the range of 0.1 to 1 µM.

For `CCOC(=O)c1c(CCc2ccc(C(F)(F)F)cc2)nc2c(c1-c1ccc(C(=O)NCCCn3ccnc3)cc1)C(=O)N1CCC[C@@H]21` [Example 41, Ethyl (9aS)-4-[4-({[3-(1H-imidazol-1-yl)propyl]amino}carbonyl)phenyl]-5-oxo-2-{2-[4-(trifluoromethyl)phenyl]ethyl}-7,8,9,9a-tetrahydro-5H-pyrido[2,3-α]pyrrolizine-3-carboxylate], the EC50 was in the range of 0.1 to 1 µM.

For `CCOC(=O)c1c(CCc2ccc(C(F)(F)F)cc2)nc2c(c1-c1ccc(C(=O)NCCc3cnc[nH]3)cc1)C(=O)N1CCC[C@@H]21` [Example 42, Ethyl (9aS)-4-[4-({[2-(1H-imidazol-5-yl)ethyl]amino}carbonyl)phenyl]-5-oxo-2-{2-[4-(trifluoromethyl)phenyl]ethyl}-7,8,9,9a-tetrahydro-5H-pyrido[2,3-α]pyrrolizine-3-carboxylate], the 50% effective concentration (EC50) was 0.1 to 1 µM.

In the case of `CCOC(=O)c1c(CCCC(C)C)nc2c(c1-c1ccc(C(=O)N[C@@H]3CCc4ccccc43)cc1)C(=O)N1CCC[C@@H]21` [Example 43, Ethyl (9aS)-4-(4-{[(1R)-2,3-dihydro-1H-inden-1-ylamino]carbonyl}phenyl)-2-(4-methylpentyl)-5-oxo-7,8,9,9a-tetrahydro-5H-pyrido[2,3-α]pyrrolizine-3-carboxylate], the EC50 is no more than 0.01 µM.

In the case of `CCOC(=O)c1c(CCC(F)(F)F)nc2c(c1-c1ccc(C(=O)N[C@@H]3CCc4ccccc43)cc1)C(=O)N1CCC[C@@H]21` [Example 44, Ethyl (9aS)-4-(4-{[(1R)-2,3-dihydro-1H-inden-1-ylamino]carbonyl}phenyl)-5-oxo-2-(3,3,3-trifluoropropyl)-7,8,9,9a-tetrahydro-5H-pyrido[2,3-α]pyrrolizine-3-carboxylate], the EC50 fell in the range of 0.01 to 0.1 µM.

As to `CCOC(=O)c1c(Cc2ccc(F)cc2F)nc2c(c1-c1ccc(C(=O)NN3CCc4ccccc43)cc1)C(=O)N1CCC[C@@H]21` [Example 45, Ethyl (9aS)-2-(2,4-difluorobenzyl)-4-{4-[(2,3-dihydro-1H-indol-1-ylamino)carbonyl]phenyl}-5-oxo-7,8,9,9a-tetrahydro-5H-pyrido[2,3-α]pyrrolizine-3-carboxylate], the half-maximal effective concentration (EC50) was in the range of 0.01 to 0.1 µM.

Take `CCOC(=O)c1c(Cc2ccc(F)cc2)nc2c(c1-c1ccc(CNC(=O)c3ccccc3)s1)C(=O)N1CCC[C@@H]21` [Example 46, Ethyl (9aS)-4-{5-[(benzoylamino)methyl]-2-thienyl}-2-(4-fluorobenzyl)-5-oxo-7,8,9,9a-tetrahydro-5H-pyrido[2,3-α]pyrrolizine-3-carboxylate]: the EC50 lay in the range of 0.1 to 1 µM.

Turning to `CCOC(=O)c1c(CCc2ccc(C(F)(F)F)cc2)nc2c(c1-c1ccc(CNC(=O)c3cccnc3)s1)C(=O)N1CCC[C@@H]21` [Example 47, Ethyl (9aS)-5-oxo-4-(5-{[(3-pyridinylcarbonyl)amino]methyl}-2-thienyl)-2-{2-[4-(trifluoromethyl)phenyl]ethyl}-7,8,9,9a-tetrahydro-5H-pyrido[2,3-α]pyrrolizine-3-carboxylate], the EC50 fell in the range of 0.01 to 0.1 µM.

The record behind these values is US7189851B2, “Condensed heterocyclic compounds as calcitonin agonists” (SmithKline Beecham Corporation, priority 2002, dated 2007).
